In brackets after ≈: the same amount, converted by molar mass. Where two headings read alike, the source gives them in different places.
Assays:
[1] = tested on: E. coli GC 2235; experiment: MIC, broth microdilution; conditions: Escherichia coli
[2] = tested on: S. aureus GC 2216; experiment: MIC, broth microdilution; conditions: Staphylococcus aureus
[3] = tested on: E. coli GC 2203; experiment: MIC, broth microdilution; conditions: Escherichia coli
[4] = tested on: S. aureus GC 6335; experiment: MIC, broth microdilution; conditions: Staphylococcus aureus
[5] = tested on: E. faecalis GC 2267; experiment: MIC, broth microdilution; conditions: Enterococcus faecalis
[6] = tested on: E. coli GC 3226; experiment: MIC, broth microdilution; conditions: Escherichia coli
[7] = tested on: E. coli GC 4559; experiment: MIC, broth microdilution; conditions: Escherichia coli
[8] = tested on: E. coli GC 2271; experiment: MIC, broth microdilution; conditions: Escherichia coli
[9] = tested on: S. aureus GC 6467; experiment: MIC, broth microdilution; conditions: Staphylococcus aureus
[10] = tested on: E. faecium GC 4556; experiment: MIC, broth microdilution; conditions: Enterococcus faecium
[11] = tested on: S. agalactiae GC 4564; experiment: MIC, broth microdilution; conditions: Streptococcus agalactiae
[12] = tested on: S. typhimurium GC 2172; experiment: MIC, broth microdilution; conditions: Salmonella enterica, TYPHIMURIUM
[13] = tested on: E. faecalis GC 2242; experiment: MIC, broth microdilution; conditions: Enterococcus faecalis
[14] = tested on: Staph. aureus Smith; experiment: In vivo activity (oral, iv; ED50) against Staph. aureus Smith in mice
[15] = tested on: E. coli GC 2270; experiment: MIC, broth microdilution; conditions: Escherichia coli
[16] = tested on: P. aeruginosa GC 2214; experiment: MIC, broth microdilution; conditions: Pseudomonas aeruginosa
[17] = tested on: E. coli GC 2231; experiment: MIC, broth microdilution; conditions: Escherichia coli
[18] = tested on: S. pneumoniae* GC 4465; experiment: MIC, broth microdilution; conditions: Streptococcus pneumoniae
[19] = tested on: E. coli GC 2232; experiment: MIC, broth microdilution; conditions: Escherichia coli
[20] = tested on: E. coli GC 4560; experiment: MIC, broth microdilution; conditions: Escherichia coli
[21] = GC2235, read-out: MINIMAL INHIBITORY CONCENTRATION MIC, pre-incubated in Mouse Serum
[22] = GC2235, read-out: MINIMAL INHIBITORY CONCENTRATION MIC, pre-incubated in Water
[23] = GC2216, read-out: MINIMAL INHIBITORY CONCENTRATION MIC, pre-incubated in Mouse Serum
[24] = GC2216, read-out: MINIMAL INHIBITORY CONCENTRATION MIC, pre-incubated in Water
[25] = GC2203, read-out: MINIMAL INHIBITORY CONCENTRATION MIC, pre-incubated in Mouse Serum
[26] = GC2203, read-out: MINIMAL INHIBITORY CONCENTRATION MIC, pre-incubated in Water
[27] = GC6335, read-out: MINIMAL INHIBITORY CONCENTRATION MIC, pre-incubated in Mouse Serum
[28] = GC6335, read-out: MINIMAL INHIBITORY CONCENTRATION MIC, pre-incubated in Water
[29] = GC2267, read-out: MINIMAL INHIBITORY CONCENTRATION MIC, pre-incubated in Mouse Serum
[30] = GC2267, read-out: MINIMAL INHIBITORY CONCENTRATION MIC, pre-incubated in Water
[31] = GC3226, read-out: MINIMAL INHIBITORY CONCENTRATION MIC, pre-incubated in Mouse Serum
[32] = GC3226, read-out: MINIMAL INHIBITORY CONCENTRATION MIC, pre-incubated in Water
[33] = GC4559, read-out: MINIMAL INHIBITORY CONCENTRATION MIC, pre-incubated in Mouse Serum
[34] = GC4559, read-out: MINIMAL INHIBITORY CONCENTRATION MIC, pre-incubated in Water
[35] = GC2271, read-out: MINIMAL INHIBITORY CONCENTRATION MIC, pre-incubated in Mouse Serum
[36] = GC2271, read-out: MINIMAL INHIBITORY CONCENTRATION MIC, pre-incubated in Water
[37] = GC6467, read-out: MINIMAL INHIBITORY CONCENTRATION MIC, pre-incubated in Mouse Serum
[38] = GC6467, read-out: MINIMAL INHIBITORY CONCENTRATION MIC, pre-incubated in Water
[39] = GC4556, read-out: MINIMAL INHIBITORY CONCENTRATION MIC, pre-incubated in Mouse Serum
[40] = GC4556, read-out: MINIMAL INHIBITORY CONCENTRATION MIC, pre-incubated in Water
[41] = GC4564, read-out: MINIMAL INHIBITORY CONCENTRATION MIC, pre-incubated in Mouse Serum
[42] = GC4564, read-out: MINIMAL INHIBITORY CONCENTRATION MIC, pre-incubated in Water
[43] = read-out: MINIMAL INHIBITORY CONCENTRATION MIC, pre-incubated in Mouse Serum
[44] = read-out: MINIMAL INHIBITORY CONCENTRATION MIC, pre-incubated in Water
[45] = GC2242, read-out: MINIMAL INHIBITORY CONCENTRATION MIC, pre-incubated in Mouse Serum
[46] = GC2242, read-out: MINIMAL INHIBITORY CONCENTRATION MIC, pre-incubated in Water
[47] = Staphylococcus aureus, in Mus musculus, po, read-out: ED50 Staph Smith SOD
[48] = iv, read-out: ED50 Staph Smith SIV
[49] = GC2270, read-out: MINIMAL INHIBITORY CONCENTRATION MIC, pre-incubated in Mouse Serum
[50] = GC2270, read-out: MINIMAL INHIBITORY CONCENTRATION MIC, pre-incubated in Water
[51] = GC2214, read-out: MINIMAL INHIBITORY CONCENTRATION MIC, pre-incubated in Mouse Serum
[52] = GC2214, read-out: MINIMAL INHIBITORY CONCENTRATION MIC, pre-incubated in Water
[53] = GC2231, read-out: MINIMAL INHIBITORY CONCENTRATION MIC, pre-incubated in Mouse Serum
[54] = GC2231, read-out: MINIMAL INHIBITORY CONCENTRATION MIC, pre-incubated in Water
[55] = GC2232, read-out: MINIMAL INHIBITORY CONCENTRATION MIC, pre-incubated in Mouse Serum
[56] = GC2232, read-out: MINIMAL INHIBITORY CONCENTRATION MIC, pre-incubated in Water
[57] = GC4560, read-out: MINIMAL INHIBITORY CONCENTRATION MIC, pre-incubated in Mouse Serum
[58] = GC4560, read-out: MINIMAL INHIBITORY CONCENTRATION MIC, pre-incubated in Water

MIC [1, 21] [µg/mL] | MIC [1, 22] [µg/mL] | MIC [2, 23] [µg/mL] | MIC [2, 24] [µg/mL] | MIC [3, 25] [µg/mL] | MIC [3, 26] [µg/mL] | MIC [4, 27] [µg/mL] | MIC [4, 28] [µg/mL] | MIC [5, 29] [µg/mL] | MIC [5, 30] [µg/mL] | MIC [6, 31] [µg/mL] | MIC [6, 32] [µg/mL] | MIC [7, 33] [µg/mL] | MIC [7, 34] [µg/mL] | MIC [8, 35] [µg/mL] | MIC [8, 36] [µg/mL] | MIC [9, 37] [µg/mL] | MIC [9, 38] [µg/mL] | MIC [10, 39] [µg/mL] | MIC [10, 40] [µg/mL] | Compound | other results
1 (≈ 1.26 µM) | > 64 | 1 (≈ 1.26 µM) | 4 (≈ 5.05 µM) | 1 (≈ 1.26 µM) | > 64 | 2 (≈ 2.53 µM) | 8 (≈ 10.1 µM) | 4 (≈ 5.05 µM) | 64 (≈ 80.8 µM) | 8 (≈ 10.1 µM) | > 64 | 2 (≈ 2.53 µM) | > 64 | 1 (≈ 1.26 µM) | > 64 | 4 (≈ 5.05 µM) | > 64 | 2 (≈ 2.53 µM) | 64 (≈ 80.8 µM) | CCCCN(CC(=O)Nc1cc(N(C)C)c2c(c1O)C(=O)C1=C(O)[C@]3(O)C(=O)C(C(N)=O)=C(O)[C@@H](N(C)C)[C@@H]3C[C@@H]1C2)C(=O)OCOC(=O)c1cc(C)cc(C)c1 [Example 22, ({[(2-{[(5aR,6aS,7S,10aS)-9-(aminocarbonyl)-4,7-bis(dimethylamino)-1,8,10a,11-tetrahydroxy-10,12-dioxo-5,5a,6,6a,7,10,10a,12-octahydrotetracen-2-yl]amino}-2-oxoethyl)(butyl)amino]carbonyl}oxy)methyl 3,5-dimethylbenzoate] | MIC [11, 41]: 1 µg/mL (≈ 1.26 µM); MIC [11, 42]: 8 µg/mL (≈ 10.1 µM); MIC [12, 43]: 8 µg/mL (≈ 10.1 µM); MIC [12, 44]: > 64 µg/mL; MIC [13, 45]: 2 µg/mL (≈ 2.53 µM); MIC [13, 46]: 32 µg/mL (≈ 40.4 µM); ED50 [14, 47]: 18.8 mg/kg; ED50 [14, 48]: 0.43 mg/kg; MIC [15, 49]: 1 µg/mL (≈ 1.26 µM); MIC [15, 50]: > 64 µg/mL; MIC [16, 51]: > 64 µg/mL; MIC [16, 52]: > 64 µg/mL; MIC [17, 53]: 2 µg/mL (≈ 2.53 µM); MIC [17, 54]: > 64 µg/mL; MIC [18, 43]: 0.5 µg/mL (≈ 0.631 µM); MIC [18, 44]: 1 µg/mL (≈ 1.26 µM); MIC [19, 55]: 2 µg/mL (≈ 2.53 µM); MIC [19, 56]: > 64 µg/mL; MIC [20, 57]: 0.5 µg/mL (≈ 0.631 µM); MIC [20, 58]: > 64 µg/mL
1 (≈ 1.3 µM) | > 64 | 1 (≈ 1.3 µM) | 4 (≈ 5.2 µM) | 1 (≈ 1.3 µM) | > 64 | 2 (≈ 2.6 µM) | 4 (≈ 5.2 µM) | 2 (≈ 2.6 µM) | 8 (≈ 10.4 µM) | 8 (≈ 10.4 µM) | > 64 | 2 (≈ 2.6 µM) | > 64 | 1 (≈ 1.3 µM) | > 64 | 4 (≈ 5.2 µM) | 8 (≈ 10.4 µM) | 2 (≈ 2.6 µM) | 4 (≈ 5.2 µM) | CCCCN(CC(=O)Nc1cc(N(C)C)c2c(c1O)C(=O)C1=C(O)[C@]3(O)C(=O)C(C(N)=O)=C(O)[C@@H](N(C)C)[C@@H]3C[C@@H]1C2)C(=O)OCOC(=O)c1cccs1 [Example 23, ({[(2-{[(5aR,6aS,7S,10aS)-9-(aminocarbonyl)-4,7-bis(dimethylamino)-1,8,10a,11-tetrahydroxy-10,12-dioxo-5,5a,6,6a,7,10,10a,12-octahydrotetracen-2-yl]amino}-2-oxoethyl)(butyl)amino]carbonyl}oxy)methyl thiophene-2-carboxylate] | MIC [11, 41]: 0.25 µg/mL (≈ 0.325 µM); MIC [11, 42]: 0.25 µg/mL (≈ 0.325 µM); MIC [12, 43]: 4 µg/mL (≈ 5.2 µM); MIC [12, 44]: > 64 µg/mL; MIC [13, 45]: 2 µg/mL (≈ 2.6 µM); MIC [13, 46]: 4 µg/mL (≈ 5.2 µM); ED50 [14, 47]: 19 mg/kg; ED50 [14, 48]: 0.47 mg/kg; MIC [15, 49]: 1 µg/mL (≈ 1.3 µM); MIC [15, 50]: > 64 µg/mL; MIC [16, 51]: > 64 µg/mL; MIC [16, 52]: > 64 µg/mL; MIC [17, 53]: 2 µg/mL (≈ 2.6 µM); MIC [17, 54]: > 64 µg/mL; MIC [18, 43]: 0.12 µg/mL (≈ 0.156 µM); MIC [18, 44]: 0.12 µg/mL (≈ 0.156 µM); MIC [19, 55]: 1 µg/mL (≈ 1.3 µM); MIC [19, 56]: > 64 µg/mL; MIC [20, 57]: 0.5 µg/mL (≈ 0.649 µM); MIC [20, 58]: 8 µg/mL (≈ 10.4 µM)
